Results taken from article PMC8550792, “Evolution of kinase polypharmacology across HSP90 drug discovery” (Cell Chemical Biology, 2021).

What was measured:
Assay in all cases: biochemical
Type in all cases: biochemical
[1] = target: T1, 382 unique human kinases (Homo sapiens, UniProt P29322); settings: kinase EPHA8, compound 10 uM; for remaining activity at 10 µM: read-out: % Enzyme Activity (relative to DMSO controls)
T1 construct: purchased Reaction Biology (HotSpot contract assay)
T1 sequence (P29322 28-1005): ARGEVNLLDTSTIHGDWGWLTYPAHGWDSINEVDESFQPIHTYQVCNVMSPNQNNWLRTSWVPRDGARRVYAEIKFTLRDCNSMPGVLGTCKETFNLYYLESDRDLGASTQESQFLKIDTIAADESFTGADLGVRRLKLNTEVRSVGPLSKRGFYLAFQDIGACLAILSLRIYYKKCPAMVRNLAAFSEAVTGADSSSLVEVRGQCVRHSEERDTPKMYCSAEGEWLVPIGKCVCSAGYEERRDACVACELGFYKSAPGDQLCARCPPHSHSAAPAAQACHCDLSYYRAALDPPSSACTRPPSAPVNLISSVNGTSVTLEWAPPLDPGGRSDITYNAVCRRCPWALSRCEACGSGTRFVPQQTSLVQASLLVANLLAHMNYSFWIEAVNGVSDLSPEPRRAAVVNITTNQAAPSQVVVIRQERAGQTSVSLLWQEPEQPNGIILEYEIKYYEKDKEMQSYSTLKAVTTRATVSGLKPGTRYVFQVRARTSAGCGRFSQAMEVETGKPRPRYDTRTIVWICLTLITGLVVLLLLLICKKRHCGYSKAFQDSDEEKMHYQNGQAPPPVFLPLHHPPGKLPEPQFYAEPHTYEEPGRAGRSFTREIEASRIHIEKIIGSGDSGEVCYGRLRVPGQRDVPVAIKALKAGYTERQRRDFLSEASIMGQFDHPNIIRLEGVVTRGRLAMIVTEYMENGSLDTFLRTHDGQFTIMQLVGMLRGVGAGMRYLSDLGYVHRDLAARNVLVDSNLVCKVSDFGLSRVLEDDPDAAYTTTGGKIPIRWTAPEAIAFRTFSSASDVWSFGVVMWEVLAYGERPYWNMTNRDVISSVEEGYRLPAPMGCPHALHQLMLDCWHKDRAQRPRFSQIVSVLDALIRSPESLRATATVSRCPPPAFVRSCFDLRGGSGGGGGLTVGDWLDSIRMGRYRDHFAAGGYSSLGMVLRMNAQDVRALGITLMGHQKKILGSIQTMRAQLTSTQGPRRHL

[2] = target: T2, 382 unique human kinases (Homo sapiens, UniProt O00238); settings: kinase ALK6/BMPR1B, compound 10 uM; for remaining activity at 10 µM: read-out: % Enzyme Activity (relative to DMSO controls)
T2 construct: purchased Reaction Biology (HotSpot contract assay)
T2 sequence (O00238 14-502): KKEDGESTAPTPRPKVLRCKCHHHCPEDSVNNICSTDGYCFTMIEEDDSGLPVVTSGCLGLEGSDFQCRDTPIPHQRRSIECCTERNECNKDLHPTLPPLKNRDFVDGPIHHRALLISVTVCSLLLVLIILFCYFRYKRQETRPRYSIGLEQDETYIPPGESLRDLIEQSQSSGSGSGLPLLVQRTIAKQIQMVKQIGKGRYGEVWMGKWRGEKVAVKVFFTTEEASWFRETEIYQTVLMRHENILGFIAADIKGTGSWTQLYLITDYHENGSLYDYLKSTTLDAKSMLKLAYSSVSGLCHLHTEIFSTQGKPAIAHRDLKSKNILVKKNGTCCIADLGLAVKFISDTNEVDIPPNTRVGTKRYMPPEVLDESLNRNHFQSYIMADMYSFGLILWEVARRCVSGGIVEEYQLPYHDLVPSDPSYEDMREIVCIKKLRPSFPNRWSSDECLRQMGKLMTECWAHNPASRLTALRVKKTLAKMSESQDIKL

[3] = target: T3, 382 unique human kinases (Homo sapiens, UniProt P31749); settings: kinase AKT1, compound 10 uM; for remaining activity at 10 µM: read-out: % Enzyme Activity (relative to DMSO controls)
T3 construct: purchased Reaction Biology (HotSpot contract assay)
T3 sequence (P31749 whole entry): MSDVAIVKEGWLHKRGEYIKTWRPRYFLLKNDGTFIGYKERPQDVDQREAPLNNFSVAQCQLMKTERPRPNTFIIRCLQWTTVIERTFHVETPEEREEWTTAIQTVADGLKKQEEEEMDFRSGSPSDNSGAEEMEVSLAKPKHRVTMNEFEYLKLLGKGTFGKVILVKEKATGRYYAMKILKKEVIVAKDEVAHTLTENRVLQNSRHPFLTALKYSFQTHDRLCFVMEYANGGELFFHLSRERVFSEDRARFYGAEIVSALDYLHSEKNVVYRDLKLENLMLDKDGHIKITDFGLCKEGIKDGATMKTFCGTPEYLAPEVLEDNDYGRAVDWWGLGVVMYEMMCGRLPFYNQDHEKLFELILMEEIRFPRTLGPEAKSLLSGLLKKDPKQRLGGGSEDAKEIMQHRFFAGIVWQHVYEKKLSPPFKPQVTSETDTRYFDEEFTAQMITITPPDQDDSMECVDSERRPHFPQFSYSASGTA

[4] = target: T4, 382 unique human kinases (Homo sapiens, UniProt Q9Y2U5); settings: MEKK2, compound at 10 uM, duplicate values; for remaining activity at 10 µM: read-out: % Enzyme Activity (relative to DMSO controls)
T4 construct: purchased Reaction Biology (HotSpot contract assay)
T4 sequence (Q9Y2U5 1-619): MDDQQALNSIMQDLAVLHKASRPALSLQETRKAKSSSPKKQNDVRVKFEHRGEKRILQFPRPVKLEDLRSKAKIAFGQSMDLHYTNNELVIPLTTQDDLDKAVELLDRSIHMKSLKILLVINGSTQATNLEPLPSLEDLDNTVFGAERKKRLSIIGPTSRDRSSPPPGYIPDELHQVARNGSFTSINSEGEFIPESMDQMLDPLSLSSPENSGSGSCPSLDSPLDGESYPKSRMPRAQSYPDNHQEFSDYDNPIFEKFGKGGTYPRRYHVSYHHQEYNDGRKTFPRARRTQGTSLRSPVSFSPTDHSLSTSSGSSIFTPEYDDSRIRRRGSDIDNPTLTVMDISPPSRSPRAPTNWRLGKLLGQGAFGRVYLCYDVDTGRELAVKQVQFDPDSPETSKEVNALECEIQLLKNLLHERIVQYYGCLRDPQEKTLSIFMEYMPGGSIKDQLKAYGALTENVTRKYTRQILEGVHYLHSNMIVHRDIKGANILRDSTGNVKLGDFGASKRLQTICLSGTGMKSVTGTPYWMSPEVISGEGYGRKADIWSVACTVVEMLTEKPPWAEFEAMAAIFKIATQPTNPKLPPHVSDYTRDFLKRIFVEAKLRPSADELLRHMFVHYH

[5] = target: T5, 382 unique human kinases (Homo sapiens, UniProt P11362); settings: FGFR1, [ATP] 5 µM, compound 10 uM; for remaining activity at 10 µM: read-out: % Enzyme Activity (relative to DMSO controls)
T5 construct: purchased Reaction Biology (HotSpot contract assay)
T5 sequence (P11362 22-822): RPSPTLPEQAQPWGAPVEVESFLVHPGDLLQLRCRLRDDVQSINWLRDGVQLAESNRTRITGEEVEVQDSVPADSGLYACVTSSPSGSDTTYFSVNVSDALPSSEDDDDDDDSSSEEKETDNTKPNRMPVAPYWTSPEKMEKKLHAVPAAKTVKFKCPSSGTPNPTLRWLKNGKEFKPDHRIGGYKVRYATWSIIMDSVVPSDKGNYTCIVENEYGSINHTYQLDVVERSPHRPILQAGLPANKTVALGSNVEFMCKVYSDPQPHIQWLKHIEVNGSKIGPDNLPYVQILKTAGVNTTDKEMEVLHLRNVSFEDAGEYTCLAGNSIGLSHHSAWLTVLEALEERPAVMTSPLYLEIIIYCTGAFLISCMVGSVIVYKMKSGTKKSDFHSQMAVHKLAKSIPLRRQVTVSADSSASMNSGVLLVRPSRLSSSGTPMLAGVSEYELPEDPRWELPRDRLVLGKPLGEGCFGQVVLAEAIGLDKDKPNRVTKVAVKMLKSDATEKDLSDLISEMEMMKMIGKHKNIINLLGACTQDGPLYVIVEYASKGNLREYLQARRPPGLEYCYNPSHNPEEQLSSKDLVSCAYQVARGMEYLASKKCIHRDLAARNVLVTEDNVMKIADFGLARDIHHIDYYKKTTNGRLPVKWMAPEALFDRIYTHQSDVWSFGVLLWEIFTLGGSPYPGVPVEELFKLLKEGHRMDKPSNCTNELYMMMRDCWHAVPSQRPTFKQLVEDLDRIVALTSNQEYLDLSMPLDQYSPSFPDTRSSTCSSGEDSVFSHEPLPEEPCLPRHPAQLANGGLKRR

[6] = target: T6, 382 unique human kinases (Homo sapiens, UniProt O15111); settings: IKKa/CHUK, 10 uM; for remaining activity at 10 µM: read-out: % Enzyme Activity (relative to DMSO controls)
T6 construct: purchased Reaction Biology (HotSpot contract assay)
T6 sequence (O15111 1-745): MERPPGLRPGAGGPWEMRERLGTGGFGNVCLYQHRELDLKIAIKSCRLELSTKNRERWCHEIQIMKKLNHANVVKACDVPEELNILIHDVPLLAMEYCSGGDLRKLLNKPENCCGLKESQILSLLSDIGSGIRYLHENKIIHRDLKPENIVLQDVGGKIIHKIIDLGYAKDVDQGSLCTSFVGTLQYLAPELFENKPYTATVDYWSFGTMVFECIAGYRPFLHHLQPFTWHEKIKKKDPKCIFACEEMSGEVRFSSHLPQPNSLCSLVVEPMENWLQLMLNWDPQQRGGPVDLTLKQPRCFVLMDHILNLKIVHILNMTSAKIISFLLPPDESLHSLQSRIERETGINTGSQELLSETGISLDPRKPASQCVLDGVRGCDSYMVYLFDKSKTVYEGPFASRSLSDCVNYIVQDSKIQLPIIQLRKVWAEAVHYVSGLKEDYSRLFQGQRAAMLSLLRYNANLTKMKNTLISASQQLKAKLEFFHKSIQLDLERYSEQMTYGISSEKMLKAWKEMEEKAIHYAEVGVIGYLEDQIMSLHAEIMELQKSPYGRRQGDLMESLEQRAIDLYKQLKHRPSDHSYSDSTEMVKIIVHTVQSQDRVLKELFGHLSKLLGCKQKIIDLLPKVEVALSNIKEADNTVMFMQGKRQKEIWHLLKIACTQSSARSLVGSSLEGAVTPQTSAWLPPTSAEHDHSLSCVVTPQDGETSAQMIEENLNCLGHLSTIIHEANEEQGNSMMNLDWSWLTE

[7] = target: T7, 382 unique human kinases (Homo sapiens, UniProt Q9UK32); settings: RSK4, [ATP] 30 µM, compound 10 uM; for remaining activity at 10 µM: read-out: % Enzyme Activity (relative to DMSO controls)
T7 construct: purchased Reaction Biology (HotSpot contract assay)
T7 sequence (Q9UK32 whole entry): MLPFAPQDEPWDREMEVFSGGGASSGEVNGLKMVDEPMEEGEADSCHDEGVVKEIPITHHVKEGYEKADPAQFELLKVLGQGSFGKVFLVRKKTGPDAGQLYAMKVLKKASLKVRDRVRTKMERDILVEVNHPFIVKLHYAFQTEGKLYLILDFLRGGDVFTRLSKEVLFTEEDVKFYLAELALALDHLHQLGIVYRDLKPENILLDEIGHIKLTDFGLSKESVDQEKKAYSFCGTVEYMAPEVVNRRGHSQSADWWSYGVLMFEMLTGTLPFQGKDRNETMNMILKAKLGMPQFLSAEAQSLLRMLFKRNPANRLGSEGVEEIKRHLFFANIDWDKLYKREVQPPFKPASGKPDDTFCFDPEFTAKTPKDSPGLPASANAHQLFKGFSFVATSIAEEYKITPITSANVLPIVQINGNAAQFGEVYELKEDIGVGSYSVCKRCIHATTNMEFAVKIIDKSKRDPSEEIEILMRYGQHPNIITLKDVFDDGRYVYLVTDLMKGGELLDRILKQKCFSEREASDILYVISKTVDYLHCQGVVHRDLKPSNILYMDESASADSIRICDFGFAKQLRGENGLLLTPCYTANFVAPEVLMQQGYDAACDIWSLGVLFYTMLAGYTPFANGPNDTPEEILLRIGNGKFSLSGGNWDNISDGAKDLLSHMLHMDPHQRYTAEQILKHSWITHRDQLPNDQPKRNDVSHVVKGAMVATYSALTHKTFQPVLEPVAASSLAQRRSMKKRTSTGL

[8] = target: T8, 382 unique human kinases (Homo sapiens, UniProt P11362, V561M); settings: FGFR1 (V561M), 10 uM; for remaining activity at 10 µM: read-out: % Enzyme Activity (relative to DMSO controls)
T8 construct: purchased Reaction Biology (HotSpot contract assay)
T8 sequence (P11362 22-822 V561M): as the sequence (P11362 22-822) above, with V540M counted along it

[9] = target: T9, 382 unique human kinases (Homo sapiens, UniProt Q9UM73, G1202R); settings: ALK (G1202R), [ATP] 20 µM, compound 10 uM; for remaining activity at 10 µM: read-out: % Enzyme Activity (relative to DMSO controls)
T9 construct: purchased Reaction Biology (HotSpot contract assay)
T9 sequence (Q9UM73 19-1620 G1202R): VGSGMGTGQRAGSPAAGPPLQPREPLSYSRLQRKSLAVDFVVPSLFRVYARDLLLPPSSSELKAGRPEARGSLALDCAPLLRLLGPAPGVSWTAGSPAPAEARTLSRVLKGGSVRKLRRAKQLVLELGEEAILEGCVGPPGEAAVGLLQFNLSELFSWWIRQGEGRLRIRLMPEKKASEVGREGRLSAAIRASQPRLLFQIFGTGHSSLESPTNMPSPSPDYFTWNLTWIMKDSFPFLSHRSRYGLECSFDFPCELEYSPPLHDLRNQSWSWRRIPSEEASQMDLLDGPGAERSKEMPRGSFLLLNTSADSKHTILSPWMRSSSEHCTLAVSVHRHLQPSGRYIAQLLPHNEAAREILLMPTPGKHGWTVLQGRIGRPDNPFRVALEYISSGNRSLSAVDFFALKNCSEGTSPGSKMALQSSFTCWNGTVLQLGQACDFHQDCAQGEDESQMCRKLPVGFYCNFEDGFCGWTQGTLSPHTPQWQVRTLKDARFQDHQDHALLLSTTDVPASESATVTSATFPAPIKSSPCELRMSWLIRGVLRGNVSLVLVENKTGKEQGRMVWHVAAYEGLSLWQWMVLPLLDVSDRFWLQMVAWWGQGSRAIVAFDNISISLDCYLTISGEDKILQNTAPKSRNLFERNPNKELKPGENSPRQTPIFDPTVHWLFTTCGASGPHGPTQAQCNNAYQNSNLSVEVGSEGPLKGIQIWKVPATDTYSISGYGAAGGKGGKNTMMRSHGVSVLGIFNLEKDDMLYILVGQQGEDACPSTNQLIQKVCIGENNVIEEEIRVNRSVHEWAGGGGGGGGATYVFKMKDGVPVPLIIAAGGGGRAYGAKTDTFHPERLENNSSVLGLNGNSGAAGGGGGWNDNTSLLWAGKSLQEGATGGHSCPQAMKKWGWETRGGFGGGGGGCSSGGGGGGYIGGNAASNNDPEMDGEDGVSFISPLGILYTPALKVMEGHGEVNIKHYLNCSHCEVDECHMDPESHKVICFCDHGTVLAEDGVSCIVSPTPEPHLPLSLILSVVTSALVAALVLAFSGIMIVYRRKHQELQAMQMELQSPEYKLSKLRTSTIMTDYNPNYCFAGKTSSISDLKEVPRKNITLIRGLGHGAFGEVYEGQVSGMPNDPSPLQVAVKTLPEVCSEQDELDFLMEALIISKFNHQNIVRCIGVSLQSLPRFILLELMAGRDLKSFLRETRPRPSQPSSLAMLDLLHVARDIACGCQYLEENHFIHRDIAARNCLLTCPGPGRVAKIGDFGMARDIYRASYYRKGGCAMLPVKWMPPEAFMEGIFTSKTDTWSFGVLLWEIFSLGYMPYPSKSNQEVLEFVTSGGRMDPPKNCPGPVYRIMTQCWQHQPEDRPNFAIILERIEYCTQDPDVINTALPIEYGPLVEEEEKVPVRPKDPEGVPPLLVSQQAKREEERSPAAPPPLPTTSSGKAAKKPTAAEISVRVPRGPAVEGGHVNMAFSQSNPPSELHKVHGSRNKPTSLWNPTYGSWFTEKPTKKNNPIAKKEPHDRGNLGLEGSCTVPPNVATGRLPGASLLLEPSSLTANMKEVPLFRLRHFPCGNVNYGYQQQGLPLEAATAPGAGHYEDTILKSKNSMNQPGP

Row | SMILES | remaining activity at 10 µM [1] [%] | remaining activity at 10 µM [2] [%] | remaining activity at 10 µM [3] [%] | remaining activity at 10 µM [4] [%] | remaining activity at 10 µM [5] [%] | remaining activity at 10 µM [6] [%] | remaining activity at 10 µM [7] [%] | remaining activity at 10 µM [8] [%] | remaining activity at 10 µM [9] [%] | % Enzyme Activity (relative to DMSO controls) [1] [%] | % Enzyme Activity (relative to DMSO controls) [2] [%] | % Enzyme Activity (relative to DMSO controls) [3] [%] | % Enzyme Activity (relative to DMSO controls) [4] [%] | % Enzyme Activity (relative to DMSO controls) [5] [%] | % Enzyme Activity (relative to DMSO controls) [6] [%] | % Enzyme Activity (relative to DMSO controls) [7] [%] | % Enzyme Activity (relative to DMSO controls) [8] [%] | % Enzyme Activity (relative to DMSO controls) [9] [%]
1 | CC(C)c1cc(-c2n[nH]c(=O)n2-c2ccc3c(ccn3C)c2)c(O)cc1O [Ganetespib (STA9090)] | 95.2 | 94.5 | 84.4 | 109 |  |  |  |  |  |  |  |  |  |  |  |  |  | 
2 | CC(C)c1cc(-c2n[nH]c(=O)n2-c2ccc3c(ccn3C)c2)c(O)cc1O [Ganetespib] |  |  |  |  | 58.5 | 103 | 27.5 | 97.7 | 52.8 |  |  |  |  |  |  |  |  | 
3 | CCNC(=O)c1noc(-c2cc(C(C)C)c(O)cc2O)c1-c1ccc(CN2CCOCC2)cc1 [Luminespib (AUY-922)] | 94.1 | 94.8 | 98.4 | 123 |  |  |  |  |  | 92.42 | 93.58 | 97.59 | 118.79 |  |  |  |  | 
4 | CCNC(=O)c1noc(-c2cc(C(C)C)c(O)cc2O)c1-c1ccc(CN2CCOCC2)cc1 [Luminespib] |  |  |  |  | 102 | 94.7 | 96 | 103 | 104 |  |  |  |  | 97.95 | 93.54 | 94.35 | 101.68 | 100.40
